The values that follow come from paper PMC5547389, “Structure-activity relationships and molecular docking studies of chromene and chromene based azo chromophores: A novel series of potent antimicrobial and anticancer agents” (EXCLI Journal, 2017).

The term IC50 denotes the concentration needed to halve the response being measured.

Converted amounts (≈) assume the structure as drawn.

What all share (assay type): cell-based
The test system of experiment [1] is Aspergillus fumigatus (RCMB 02568). The experiment in a line: MIC by serial dilution method. The note with it: RCMB02568, fungi, read-out: Minimum inhibitory concentration, MIC, A.F. In short, it runs like this:
(§1)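 Agar well diffusion screen → serial dilution for MIC + inhibition zone. Positive controls: ampicillin, ciprofloxacin, gentamicin, amphotericin B.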

Experiment [2] concerns Bacillus subtilis (RCMB 010067). The experiment in a line: MIC by serial dilution method. The settings on record: RCMB010067, Gm+ve, read-out: Minimum inhibitory concentration, MIC, B.S. The procedure, abridged: as §1
In experiment [3] the test system is Escherichia coli (RCMB 010052). The experiment in a line: MIC by serial dilution method. The settings on record: RCMB010052, Gm-ve, read-out: Minimum inhibitory concentration, MIC, E.C. In short, it runs like this:
as §1

Experiment [4] deals with Streptococcus pneumoniae (RCMB 010010). The experiment in a line: MIC by serial dilution method. The note with it: RCMB010010, Gm+ve, read-out: Minimum inhibitory concentration, MIC, S.P. The procedure, abridged:
as §1

Experiment [5] deals with Syncephalastrum racemosum (RCMB 05922). The experiment in a line: MIC by serial dilution method. The note with it: RCMB05922, fungi, read-out: Minimum inhibitory concentration, MIC, S.R. In short, it runs like this:
as §1

Experiment [6] has as its system HCT-116, MCF-7, HEPG-2. The experiment in a line: Cytotoxic screening, statements over the three cell lines. The note with it: Homo sapiens; HCT-116, MCF-7, HEPG-2 together; read-out: IC50, range over the three cell lines. Here is the method:
Human colon carcinoma (HCT-116), human hepatocellular carcinoma (HEPG-2), adenocarcinomic human alveolar basal epithelial cell (A-549), and human breast adenocarcinoma (MCF-7) cell lines were obtained from the American Type Culture Collection (ATCC, Rockville, MD). The cells were grown on RPMI-1640 medium supplemented with 10 % inactivated fetal calf serum and 50 µg/ml gentamycin. The cells were maintained at 37 °C in a humidified atmosphere with 5 % CO2 and were subcultured two to three times a week. Potential cytotoxicity of the compounds was evaluated on tumor cells using the method of Gangadevi and Muthumary (2007[21]) (Klancnik et al., 2010[36]). The cells were grown as monolayers in growth RPMI-1640. The monolayers of 104 cells adhered at the bottom of the wells in a 96-well microtiter plate incubated for 24 h at 37 °C in a humidified incubator with 5 % CO2. The monolayers were then washed with sterile phosphate buffered saline (0.01 M pH 7.2) and simultaneously the cells were treated with 100 µL from different dilutions of tested sample in fresh maintenance medium and incubated at 37 °C. A control of untreated cells was made in the absence of tested sample. Positive controls containing doxorubicin were also tested as a reference drug for comparison. Six wells were used for each concentration of the test sample. Every 24 hours an observation under the inverted microscope was made. The number of the surviving cells was determined by staining the cells with crystal violet (Mosmann, 1983[42]; Gangadevi and Muthumary, 2007[21]) followed by cell lysing using 33 % glacial acetic acid and reading the absorbance at 590 nm using microplate reader (SunRise, TECAN, Inc, USA) after well mixing. The absorbance values from untreated cells were considered as 100 % proliferation. The number of viable cells was determined using microplate reader as previously mentioned before and the percentage of […] was calculated as [1-(ODt/ODc)] x 100 % where ODt is the mean optical density of wells treated with the tested sample and ODc is the mean optical density of untreated cells. The relation between surviving cells and drug concentration was plotted to get the survival curve of each tumor cell line after treatment with the specified compound. The 50 % inhibitory concentration (IC50), the concentration required to cause toxic effects in 50 % of intact cells, was estimated from graphic plots.
The in vitro cytotoxic activity was performed by MTT assay (Mosmann, 1983[42]; Alley et al., 1988[6]) against three human carcinoma cell lines: Human colon carcinoma (HCT-116), human breast adenocarcinoma (MCF-7), and human hepatocellular carcinoma (HEPG-2).

The test system of experiment [7] is Geotricum candidum (RCMB 05097). The experiment in a line: MIC by serial dilution method. The settings on record: fungi; read-out: Minimum inhibitory concentration, MIC, G.C. The procedure, abridged: as §1

For `N#CC1=C(N)Oc2c(N)cc3ccccc3c2C1c1ccc(F)cc1` (stereo not shown) [4a, 3,5-diamino-1-(4-fluorophenyl)-1H-benzo[f]chromene-2-carbonitrile], the MIC in experiment [1] was 15.6 µg/mL (≈ 47.2 µM); in experiment [2] it was 3.9 µg/mL (≈ 11.8 µM); in experiment [3] it was 7.81 µg/mL (≈ 23.6 µM); in experiment [4], 15.6 µg/mL (≈ 47.2 µM); in experiment [5], 7.81 µg/mL (≈ 23.6 µM). Moreover, the IC50 in experiment [6] lay in the range of 0.3 to 2 µg/mL (≈ 0.905 to 6.04 µM).
Take `N#CC1=C(N)Oc2c(N)cc3ccccc3c2C1c1ccc(Cl)cc1` (stereo not shown) [4b, 3,5-diamino-1-(4-chlorophenyl)-1H-benzo[f]chromene-2-carbonitrile]: the MIC is 0.24 µg/mL (≈ 0.69 µM) in experiment [1]; 0.007 µg/mL (≈ 0.0201 µM) in experiment [2]; 15.6 µg/mL (≈ 44.9 µM) in experiment [3]; 0.03 µg/mL (≈ 0.0863 µM) in experiment [7]; 0.49 µg/mL (≈ 1.41 µM) in experiment [4]; 31.2 µg/mL (≈ 89.8 µM) in experiment [5]. In experiment [6], the concentration for half-maximal inhibition (IC50) lay within 0.3 to 2 µg/mL (≈ 0.863 to 5.75 µM).
For `Cc1ccc(C2C(C#N)=C(N)Oc3c(N)cc4ccccc4c32)cc1` (stereo not shown) [4c, 3,5-diamino-1-(p-tolyl)-1H-benzo[f]chromene-2-carbonitrile], the MIC was determined as 3.9 µg/mL (≈ 11.9 µM) in experiment [1]; 7.81 µg/mL (≈ 23.9 µM) in experiment [2]; 62.5 µg/mL (≈ 191 µM) in experiment [3]; 7.81 µg/mL (≈ 23.9 µM) in experiment [7]; 7.81 µg/mL (≈ 23.9 µM) in experiment [4]; 31.2 µg/mL (≈ 95.5 µM) in experiment [5]. In experiment [6], the IC50 was in the range of 0.3 to 2 µg/mL (≈ 0.916 to 6.11 µM).
For the compound `N#CC1=C(N)Oc2c(ccc3c(N)cccc23)C1c1ccc(F)cc1` (stereo not shown) [7c], the 50% inhibitory concentration (IC50) in experiment [6] was in the range of 0.3 to 2 µg/mL (≈ 0.905 to 6.04 µM).
As for `COc1ccc(N=Nc2cc3c(cc2O)OC(N)=C(C#N)C3c2ccc(F)cc2)cc1` (stereo not shown) [13b, 2-Amino-4-(4-fluoro-phenyl)-7-hydroxy-6-(4-methoxy-phenylazo)-4H-chromene-3-carbonitrile], the MIC in experiment [1] is 62.5 µg/mL (≈ 150 µM); in experiment [2] it was 3.9 µg/mL (≈ 9.37 µM); in experiment [3], 15.6 µg/mL (≈ 37.5 µM); in experiment [7] it was 31.2 µg/mL (≈ 74.9 µM); in experiment [4] it was 31.2 µg/mL (≈ 75 µM); in experiment [5], 62.5 µg/mL (≈ 150 µM). In addition, the IC50 in experiment [6] was 2.41 to 5.4 µg/mL (≈ 5.79 to 13 µM).
